The text below walks through data of patent US8754227B2, “Metalloenzyme inhibitor compounds” (Viamet Pharmaceuticals, Inc., priority 2010, dated 2014).

In one series the test system is C. albicans. In words: Minimum Inhibitory Concentration (MIC), CLSI M27-A2. Format: cell-based. The settings on record: Candida albicans; about 50% growth reduction; approximately 48 h at 35°C. The method, then: Compounds were assessed for their ability to inhibit the growth of common strains of fungus, C. albicans using a standardized procedure (CLSI M27-A2). Stock solutions of the test compounds and standards were prepared in DMSO at 1,600 μg/mL (C. albicans). Eleven, serial, one-half dilutions of compounds were prepared in 96-well plates in RPMI+MOPS. The assay concentration ranges were […] (C. albicans). Cell suspensions of C. albicans were prepared and added to each well at concentrations of approximately 3.7×10^3 colony-forming-units per milliliter (cfu/mL). All testing was in duplicate. The inoculated plates were incubated for approximately 48 h at 35±1° C. At the completion of incubation the wells of each plate were evaluated visually for the presence of fungal growth. […] For QC purposes C. krusei isolate ATCC 6258 (4.0×10^3 efu/mL) was included in the VOR assay.

In another series the target is CYP2C19 (Homo sapiens (Human), UniProt P33261). In words: Inhibition of liver cytochrome P450 enzymes, pooled human liver microsomes. Format: in vitro ADME. How it is done: (§1) Solutions of each test compound were separately prepared at concentrations of 20000, 6000, 2000, 600, 200, and 60 μM by serial dilution with DMSO:MeCN (50:50 v/v). […] The mixed inhibitor solutions were then diluted 20-fold with DMSO:MeCN:deionized water (5:5:180 v/v/v) to concentrations of 300, 100, 30, 10, 3, 1, 0.3, and 0.1 μM. The percent of organic solvent attributable to the test compound or inhibitor mixture in the final reaction mixture was 2% v/v. Pooled human liver microsome suspension (20 mg/mL) was diluted with phosphate buffer to obtain a 5 mg/mL suspension. A solution of NADPH was prepared in phosphate buffer at a concentration of 5 mM. Separate stock solutions of each substrate were prepared in DMSO:MeCN (50:50 v/v), mixed, and diluted in phosphate buffer to obtain a single solution containing each substrate at five times its experimentally determined Km concentration. The percent of organic solvent attributable to substrate mixture in the final reaction mixture was 1% v/v. Substrate solution and microsome suspension were combined in a 1:1 volume ratio, mixed, and distributed to reaction wells of a PCR plate. Individual test compound or combined inhibitor solutions at each concentration were added to the wells and mixed by repetitive aspirate-dispense cycles. […] Reaction mixtures were allowed to equilibrate at 37° C. for approximately two minutes before adding NADPH solution to initiate reaction, followed by pipette mixing of reaction mixture. Ten minutes after addition of NADPH, the reaction mixtures were quenched with cold acetonitrile. […] A portion of the supernatant was analyzed by gradient reverse-phase HPLC with detection by electrospray ionization triple quadrupole mass spectrometry in the positive ion mode. Data was fitted to sigmoid dose-response curves and the inhibitory potency of each test compound was determined as its IC50 value.
CYP2C19, sequence (P33261 whole entry): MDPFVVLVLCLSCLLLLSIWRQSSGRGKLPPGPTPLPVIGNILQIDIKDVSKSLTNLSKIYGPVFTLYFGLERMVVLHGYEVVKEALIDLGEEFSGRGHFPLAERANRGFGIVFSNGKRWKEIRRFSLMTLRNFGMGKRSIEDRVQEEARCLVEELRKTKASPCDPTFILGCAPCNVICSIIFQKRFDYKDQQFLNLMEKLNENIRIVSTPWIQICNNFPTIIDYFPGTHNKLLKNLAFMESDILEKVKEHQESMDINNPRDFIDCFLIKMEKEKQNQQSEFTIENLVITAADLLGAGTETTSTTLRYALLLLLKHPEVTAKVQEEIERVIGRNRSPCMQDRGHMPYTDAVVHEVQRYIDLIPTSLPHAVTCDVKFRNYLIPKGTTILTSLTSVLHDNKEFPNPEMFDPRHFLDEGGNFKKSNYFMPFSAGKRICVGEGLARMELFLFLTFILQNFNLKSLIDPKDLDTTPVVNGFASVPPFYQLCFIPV

For a further series, the target named is CYP2C9 (Homo sapiens (Human), UniProt P11712). The series is described as above. Format: in vitro ADME. The method, then:
as §1

Another series concerns the target CYP3A4 (Homo sapiens (Human), UniProt P08684). The series is described as above. The class given is in vitro ADME. The method, then:
as §1

In brackets after ≈: the same amount, converted by molar mass.

CYP2C9, sequence (P11712 whole entry): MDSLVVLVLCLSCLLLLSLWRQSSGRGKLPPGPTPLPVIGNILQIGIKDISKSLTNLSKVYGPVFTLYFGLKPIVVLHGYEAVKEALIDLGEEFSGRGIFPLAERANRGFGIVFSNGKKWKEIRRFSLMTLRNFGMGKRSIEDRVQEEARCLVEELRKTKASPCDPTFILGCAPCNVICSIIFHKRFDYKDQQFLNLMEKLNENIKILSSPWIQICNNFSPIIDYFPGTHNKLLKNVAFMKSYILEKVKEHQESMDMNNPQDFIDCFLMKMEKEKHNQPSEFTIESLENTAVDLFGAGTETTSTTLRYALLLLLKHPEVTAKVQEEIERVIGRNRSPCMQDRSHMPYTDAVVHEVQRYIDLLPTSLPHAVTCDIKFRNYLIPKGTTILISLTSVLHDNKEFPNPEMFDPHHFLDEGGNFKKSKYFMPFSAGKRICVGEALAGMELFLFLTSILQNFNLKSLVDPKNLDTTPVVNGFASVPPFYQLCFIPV
CYP3A4, sequence (P08684 whole entry): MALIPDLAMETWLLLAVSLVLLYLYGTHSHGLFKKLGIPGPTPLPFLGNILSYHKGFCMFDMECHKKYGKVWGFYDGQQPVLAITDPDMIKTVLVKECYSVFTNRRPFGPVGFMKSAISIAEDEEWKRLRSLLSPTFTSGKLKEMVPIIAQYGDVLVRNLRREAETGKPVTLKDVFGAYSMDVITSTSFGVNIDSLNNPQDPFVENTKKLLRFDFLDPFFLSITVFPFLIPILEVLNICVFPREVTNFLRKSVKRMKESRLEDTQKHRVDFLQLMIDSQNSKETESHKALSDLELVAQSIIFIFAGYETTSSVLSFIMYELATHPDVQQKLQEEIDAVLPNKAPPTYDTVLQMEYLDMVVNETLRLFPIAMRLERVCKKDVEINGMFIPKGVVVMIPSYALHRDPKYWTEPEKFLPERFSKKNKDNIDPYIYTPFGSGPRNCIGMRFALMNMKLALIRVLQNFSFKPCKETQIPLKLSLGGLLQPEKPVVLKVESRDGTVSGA

Broadly, the MIC is the least concentration at which growth counts as inhibited. In the series with C. albicans, `OC(Cn1cncn1)(c1ccc(F)cc1F)C(F)(F)c1ccc(-c2ccc(F)cc2)cn1` (stereo not drawn) [Example 16, 2-(2,4-Difluorophenyl)-1,1-difluoro-1-(5-(4-fluorophenyl)pyridin-2-yl)-3-(1H-1,2,4-triazol-1-yl)propan-2-ol] returned an MIC of 2 ng/mL (≈ 4.48 nM).
`OC(Cn1cncn1)(c1ccc(F)cc1F)C(F)(F)c1ccc(-c2ccc(OCC(F)(F)F)cc2)cn1` (stereo not drawn) [Example 17, 2-(2,4-difluorophenyl)-1,1-difluoro-3-(1H-1,2,4-triazol-1-yl)-1-(5-(4-(2,2,2-trifluoroethoxy)phenyl)pyridin-2-yl)propan-2-ol] yielded a minimum inhibitory concentration (MIC) against C. albicans of at most 1 ng/mL.
For orientation: IC50 means the concentration at which inhibition is half-maximal. Low values mean greater potency, high ones weaker potency. Regarding `OC(Cn1cncn1)(c1ccc(F)cc1F)C(F)(F)c1ccc(-c2ccc(OC(F)(F)F)cc2)cn1` [Example 18, 2-(2,4-Difluorophenyl)-1,1-difluoro-3-(1H-1,2,4-triazol-1-yl)-L-(5-(4-(trifluoromethoxy)phenyl)pyridin-2-yl)propan-2-ol], the IC50 against CYP2C19 was determined as 11 µM; against CYP2C9, 3.1 µM; at CYP3A4 it was 3.8 µM. In the series with C. albicans, this molecule had an MIC of at most 1 ng/mL.
